This is an account of results in patent publication US12692261B2, “Substituted heterocyclic compounds and therapeutic uses thereof” (Bayer Aktiengesellschaft, priority 2020, dated 2026).

Experiment [1] concerns the target T1, full-length human CSNK1A1 (Homo sapiens, UniProt P48729).
T1 construct: N-terminal Glutathion-S-Transferase (GST) and full-length human CSNK1A1; purchased Life Technologies PV4174; host or cells: baculovirus infected insect cells
Briefly: CSNK1A1 Assay 2 (ADP-Glo, 1 μM ATP, substrate biotin-Ahx-KRRRAL-pS-VASLPGL). The class given is biochemical. Conditions: Table 3, read-out: CSNK1A1 Assay 2 IC50 [mol/l] (median). How it is done: CSNK1A1-inhibitory activity of compounds of the present invention in presence of 1 μM adenosine-tri-phosphate (ATP) was quantified employing the CSNK1A1 assay as described in the following paragraphs. In essence, the enzyme activity is measured by quantification of the adenosine-di-phosphate (ADP), which is generated as a co-product of the enzyme reaction, via the “ADP-Glo™ Kinase Assay” kit from the company Promega. This detection system works as follows: In a first step the ATP not consumed in the kinase reaction is quantitatively converted to cAMP employing an adenylate cyclase (“ADP-Glo-reagent”), then the adenylate cyclase is stopped and the ADP generated in the kinase reaction converted to ATP which generates in a luciferase-based reaction a glow-luminescence signal (“Kinase Detection Reagent”).
(§1) Recombinant fusion protein of N-terminal Glutathion-S-Transferase (GST) and full-length human CSNK1A1, expressed by baculovirus infected insect cells and purified via Glutathion affinity chromatography, was purchased from Life Technologies (product no. PV4174) and used as enzyme. As substrate for the kinase reaction the biotinylated peptide biotin-Ahx-KRRRAL-pS-VASLPGL (C-terminus in amide form) was used which can be purchased e.g. from the company Biosyntan (Berlin-Buch, Germany).
For the assay 50 nl of a 100 fold concentrated solution of the test compound in DMSO was pipetted into a white 1536-well microtiter plate (Greiner Bio-One, Frickenhausen, Germany), 2 μL of a solution of CSNK1A1 in aqueous assay buffer [50 mM HEPES pH 7.5, 10% (v/v) glycerol, 10 mM MgCl2, 50 mM NaCl, 1 mM dithiothreitol, 0.01% (w/v) bovine serum albumin, 0.01% (v/v) Triton X-100] were added and the mixture was incubated for 15 min at 22° C. to allow pre-binding of the test compounds to the enzyme before the start of the kinase reaction. […] The concentration of CSNK1A1 was adjusted depending of the activity of the enzyme lot and was chosen appropriate to have the assay in the linear range, a typical concentrations are about 0.0375 ng/μL. The reaction was stopped by the addition of 2.5 μL of “ADP-Glo-reagent” (1:1.5 fold diluted with water) and the resulting mixture was incubated at 22° C. for 1 h to convert the ATP not consumed in the kinase reaction completely […]. Subsequently 2.5 μL of the “kinase detection reagent” (1.2 fold more concentrated than recommended by the producer) were added, the resulting mixture was incubated at 22° C. for 1 h and then the luminescence measured with a suitable measurement instrument (e.g. Viewlux™ from Perkin-Elmer). The amount of emitted light was taken as a measure for the amount of ADP generated and thereby for the activity of the CSNK1A1.
On the technique in general: ADP-Glo first removes unused ATP, then detects ADP through luciferase.

The target of experiment [2] is T1, full-length human CSNK1A1. Briefly: CSNK1A1 High ATP Assay (ADP-Glo, 1 mM ATP).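 Further: 30 min kinase reaction at 22 °C with 100 µM peptide substrate.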 Conditions: Table 3, read-out: CSNK1A1 high ATP assay IC50 [mol/l] (median). The class given is biochemical. How it is done:
CSNK1A1-inhibitory activity of compounds of the present invention in presence of 1 mM adenosine-tri-phosphate (ATP) was quantified employing the CSNK1A1-high-ATP-assay as described in the following paragraphs. In essence, the enzyme activity is measured by quantification of the adenosine-di-phosphate (ADP), which is generated as a co-product of the enzyme reaction, via the “ADP-Glo™ Kinase Assay” kit from the company Promega. This detection system works as follows: In a first step the ATP not consumed in the kinase reaction is quantitatively converted to cAMP employing an adenylate cyclase (“ADP-Glo-reagent”), then the adenylate cyclase is stopped and the ADP generated in the kinase reaction converted to ATP which generates in a luciferase-based reaction a glow-luminescence signal (“Kinase Detection Reagent”).
as §1
For the assay 50 nl of a 100 fold concentrated solution of the test compound in DMSO was pipetted into a white low volume 384-well microtiter plate (Greiner Bio-One, Frickenhausen, Germany), 2 μL of a solution of CSNK1A1 in aqueous assay buffer [50 mM HEPES pH 7.5, 10% (v/v) glycerol, 10 mM MgCl2, 50 mM NaCl, 1 mM dithiothreitol, 0.01% (w/v) bovine serum albumin, 0.01% (v/v) Triton X-100] were added and the mixture was incubated for 15 min at 22° C. to allow pre-binding of the test compounds to the enzyme before the start of the kinase reaction. […] The concentration of CSNK1A1 was adjusted depending of the activity of the enzyme lot and was chosen appropriate to have the assay in the linear range, a typical concentration is about 0.4 ng/μL. The reaction was stopped by the addition of 2.5 μL of “ADP-Glo-reagent” (1:1.5 fold diluted with water) and the resulting mixture was incubated at 22° C. for 1 h to convert the ATP not consumed in the kinase reaction completely […]. Subsequently 2.5 μL of the “kinase detection reagent” (1.2 fold more concentrated than recommended by the producer) were added, the resulting mixture was incubated at 22° C. for 1 h and then the luminescence measured with a suitable measurement instrument (e.g. Viewlux™ from Perkin-Elmer). The amount of emitted light was taken as a measure for the amount of ADP generated and thereby for the activity of the CSNK1A1.

“And” between values parts separate entries of the source, which are not always exact repeats. Equal values may be shown once.

T1 sequence (P48729 whole entry): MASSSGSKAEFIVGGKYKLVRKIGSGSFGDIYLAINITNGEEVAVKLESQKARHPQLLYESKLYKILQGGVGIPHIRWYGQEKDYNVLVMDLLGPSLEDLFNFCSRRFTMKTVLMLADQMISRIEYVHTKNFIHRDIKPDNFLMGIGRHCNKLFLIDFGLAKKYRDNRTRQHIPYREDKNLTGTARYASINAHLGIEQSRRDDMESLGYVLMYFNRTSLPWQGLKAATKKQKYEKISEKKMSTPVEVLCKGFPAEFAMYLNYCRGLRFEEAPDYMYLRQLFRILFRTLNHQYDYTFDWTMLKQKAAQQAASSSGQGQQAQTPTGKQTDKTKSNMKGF

Turning to `O=C(Nc1cc(-c2[nH]c3cncnc3c2-c2ccccn2)ccn1)C(CC(F)F)c1ccc(F)cc1` (single isomer, unassigned; (-)) [Example 14, (−)-4,4-difluoro-2-(4-fluorophenyl)-N-{4-[7-(pyridin-2-yl)-5H-pyrrolo[3,2-d]pyrimidin-6-yl]pyridin-2-yl}butanamide], the values for the IC50 in experiment [1] and in experiment [2] were 16.4 nM and 2140 nM, respectively.
Turning to `O=C(Nc1cc(-c2[nH]c3c(C4CCCO4)cc(F)nc3c2-c2ccccn2)ccn1)C(CC(F)F)c1ccc(F)cc1` (single isomer, unassigned) [Example 115, (2R or S)-4,4-difluoro-N-(4-{5-fluoro-7-[(2R or S)-oxolan-2-yl]-3-(pyridin-2-yl)-1H-pyrrolo[3,2-b]pyridin-2-yl}pyridin-2-yl)-2-(4-fluorophenyl)butanamide], the IC50 in experiment [1] stood at 5.84 nM; in experiment [2], 23.1 nM.
The matching figures for `O=C(Nc1cc(-c2[nH]c3cccnc3c2-c2ccccn2)ccn1)C(CC(F)F)c1ccc(F)cc1` (racemic) [Example 10, 4,4-difluoro-2-(4-fluorophenyl)-N-{4-[3-(pyridin-2-yl)-1H-pyrrolo[3,2-b]pyridin-2-yl]pyridin-2-yl}butanamide]: 2.61 nM and 9.88 nM.
On to `O=C(Nc1cc(-c2[nH]c3c(OC4CC4)cc(F)nc3c2-c2ccccn2)ccn1)C(CC(F)F)c1ccc(F)cc1` (racemic) [Example 42, (rac)-N-{4-[7-(cyclopropyloxy)-5-fluoro-3-(pyridin-2-yl)-1H-pyrrolo[3,2-b]pyridin-2-yl]pyridin-2-yl}-4,4-difluoro-2-(4-fluorophenyl)butanamide], for which the IC50 in experiment [1] and in experiment [2] was 8.22 nM throughout.
As to `O=C(Nc1cc(-c2[nH]c3c(C4CCCO4)cc(F)nc3c2-c2ccccn2)ccn1)C(CC(F)F)c1ccc(F)cc1` (racemic) [Example 114, (2RS)-4,4-difluoro-2-(4-fluorophenyl)-N-(4-{5-fluoro-3-(pyridin-2-yl)-7-[(2RS)-tetrahydrofuran-2-yl]-1H-pyrrolo[3,2-b]pyridin-2-yl}pyridin-2-yl)butanamide], the IC50 stood at 6.74 nM in experiment [1] and 37 nM in experiment [2].
For the molecule `Cc1cnc2c(-c3ccccn3)c(-c3ccnc(NC(=O)C(CC(F)F)c4ccc(F)cc4)c3)[nH]c2c1` (racemic) [Example 7, 4,4-difluoro-2-(4-fluorophenyl)-N-{4-[6-methyl-3-(pyridin-2-yl)-1H-pyrrolo[3,2-b]pyridin-2-yl]pyridin-2-yl}butanamide], the IC50 in experiment [1] came to 2.76 nM; in experiment [2], 8.12 nM.
Consider `O=C(Nc1cc(-c2[nH]c3c(OCC4CC4)ncnc3c2-c2ccccn2)ccn1)C(CC(F)F)c1ccc(F)cc1` (single isomer, unassigned) [Example 130, (2R or S)—N-{4-[4-(cyclopropylmethoxy)-7-(pyridin-2-yl)-5H-pyrrolo[3,2-d]pyrimidin-6-yl]pyridin-2-yl}-4,4-difluoro-2-(4-fluorophenyl)butanamide], for which the IC50 was 43.7 nM in experiment [1]; 4960 nM and > 5710 nM in experiment [2].
On to `O=C(Nc1cc(-c2[nH]c3cc(F)cnc3c2-c2ccccc2)ccn1)C(CC(F)F)c1ccc(F)cc1` (single isomer, unassigned; (-)) [Example 20, (−)-4,4-difluoro-2-(4-fluorophenyl)-N-[4-(6-fluoro-3-phenyl-1H-pyrrolo[3,2-b]pyridin-2-yl)pyridin-2-yl]butanamide], for which the IC50 in experiment [1] stood at 132 nM; in experiment [2] it was 10100 nM.
The matching figures for `O=C(Nc1cc(-c2[nH]c3c(OCC(F)F)cc(F)nc3c2-c2ccccn2)ccn1)C(CC(F)F)c1ccc(F)cc1` (racemic) [Example 28, (2RS)—N-{4-[7-(2,2-difluoroethoxy)-5-fluoro-3-(pyridin-2-yl)-1H-pyrrolo[3,2-b]pyridin-2-yl]pyridin-2-yl}-4,4-difluoro-2-(4-fluorophenyl)butanamide]: 3.95 nM and 3.95 nM.
For `O=C(Nc1cc(-c2[nH]c3c(OCC(F)(F)F)ncnc3c2-c2ccccn2)ccn1)C(CC(F)F)c1ccc(F)cc1` (single isomer, unassigned) [Example 124, (2R or S)-4,4-difluoro-2-(4-fluorophenyl)-N-{4-[7-(pyridin-2-yl)-4-(2,2,2-trifluoroethoxy)-5H-pyrrolo[3,2-d]pyrimidin-6-yl]pyridin-2-yl}butanamide], the IC50 in experiment [1] came out at 30 nM; in experiment [2], 2180 nM.
In the same order, the values of `Cc1ccc2[nH]c(-c3ccnc(NC(=O)C(CC(F)F)c4ccc(F)cc4)c3)c(-c3ccccn3)c2n1` (racemic) [Example 4, 4,4-difluoro-2-(4-fluorophenyl)-N-{4-[5-methyl-3-(pyridin-2-yl)-1H-pyrrolo[3,2-b]pyridin-2-yl]pyridin-2-yl}butanamide] are 6.49 nM and 158 nM.
In the same order, the values of `Cc1cc2[nH]c(-c3ccnc(NC(=O)C(CC(F)F)c4ccc(F)cc4)c3)c(-c3ccccn3)c2nc1F` (single isomer, unassigned) [Example 34, 4,4-difluoro-N-{4-[5-fluoro-6-methyl-3-(pyridin-2-yl)-1H-pyrrolo[3,2-b]pyridin-2-yl]pyridin-2-yl}-2-(4-fluorophenyl)butanamide] are 3.79 nM and 3.79 nM.
Take `O=C(Nc1cc(-c2[nH]c3nccnc3c2-c2ccccn2)ccn1)C(CC(F)(F)F)c1ccc(F)cc1` (single isomer, unassigned) [Example 120, (2R or S)-4,4,4-trifluoro-2-(4-fluorophenyl)-N-{4-[7-(pyridin-2-yl)-5H-pyrrolo[2,3-b]pyrazin-6-yl]pyridin-2-yl}butanamide]: the IC50 in experiment [1] was 1.36 nM; in experiment [2], 35.8 nM.
The matching figures for `O=C(Nc1cc(-c2[nH]c3c(N4CCNCC4)ccnc3c2-c2ccccn2)ccn1)C(CC(F)F)c1ccc(F)cc1` (single isomer, unassigned) [Example 94, (2R or S)-4,4-difluoro-2-(4-fluorophenyl)-N-{4-[7-(piperazin-1-yl)-3-(pyridin-2-yl)-1H-pyrrolo[3,2-b]pyridin-2-yl]pyridin-2-yl}butanamide]: 2.31 nM and 2.31 nM.
`O=C(Nc1cc(-c2[nH]c3c(C4CCCO4)cc(F)nc3c2-c2ccccn2)ccn1)C(CC(F)F)c1ccc(F)cc1` (single isomer, unassigned) [Example 116, (2R or S)-4,4-difluoro-N-(4-{5-fluoro-7-[(2R or S)-oxolan-2-yl]-3-(pyridin-2-yl)-1H-pyrrolo[3,2-b]pyridin-2-yl}pyridin-2-yl)-2-(4-fluorophenyl)butanamide]: the values for the IC50 in experiment [1] and in experiment [2] were 5.1 nM and 13.2 nM, respectively.
